Measured values reported in ChEMBL document CHEMBL1142477, “Synergistic interaction between p-glycoprotein modulators and epirubicine on resistant cancer cells” (Bioorg Med Chem, 2008).
Converted amounts (≈) assume the structure as drawn.

Experiments:
[1] = molecular target: T1, ATP-dependent translocase ABCB1 (Homo sapiens, UniProt P08183); assay: Reversal of P-glycoprotein-mediated multidrug resistance in human MDR1 gene transfected mouse L5178 cells assessed as fluorescence activity ratio at 4 ug/ml by rhodamine-123 exclusion test; type: cell-based
[2] = molecular target: T1, ATP-dependent translocase ABCB1; assay: Reversal of P-glycoprotein-mediated multidrug resistance in human MDR1 gene transfected mouse L5178 cells assessed as mean fluorescence intensity at 4 ug/ml by rhodamine-123 exclusion test; type: cell-based
[3] = molecular target: T1, ATP-dependent translocase ABCB1; assay: Reversal of P-glycoprotein-mediated multidrug resistance in human MDR1 gene transfected mouse L5178 cells assessed as fluorescence activity ratio at 40 ug/ml by flow cytometry; type: cell-based
[4] = molecular target: T1, ATP-dependent translocase ABCB1; assay: Reversal of P-glycoprotein-mediated multidrug resistance in human MDR1 gene transfected mouse L5178 cells assessed as mean fluorescence intensity at 40 ug/ml by rhodamine-123 exclusion test; type: cell-based
[5] = Antiproliferative activity against parental mouse L5178 cells after 72 hrs MTT assay; type: functional; settings: L5178, 72 h, read-out: ID50 (the source's name)
[6] = Antiproliferative activity against multidrug-resistant mouse L5178 cells after 72 hrs MTT assay; type: functional; settings: L5178, 72 h, read-out: ID50 (the source's name)
[7] = Lipophilicity, log P of the compound; type: physicochemical; settings: octanol/water
[8] = Potentiation of epirubicin-induced cytotoxicity against mouse L5178 cells assessed as fractional inhibitory index by checkerboard microplate method; type: functional

T1 sequence (P08183 whole entry): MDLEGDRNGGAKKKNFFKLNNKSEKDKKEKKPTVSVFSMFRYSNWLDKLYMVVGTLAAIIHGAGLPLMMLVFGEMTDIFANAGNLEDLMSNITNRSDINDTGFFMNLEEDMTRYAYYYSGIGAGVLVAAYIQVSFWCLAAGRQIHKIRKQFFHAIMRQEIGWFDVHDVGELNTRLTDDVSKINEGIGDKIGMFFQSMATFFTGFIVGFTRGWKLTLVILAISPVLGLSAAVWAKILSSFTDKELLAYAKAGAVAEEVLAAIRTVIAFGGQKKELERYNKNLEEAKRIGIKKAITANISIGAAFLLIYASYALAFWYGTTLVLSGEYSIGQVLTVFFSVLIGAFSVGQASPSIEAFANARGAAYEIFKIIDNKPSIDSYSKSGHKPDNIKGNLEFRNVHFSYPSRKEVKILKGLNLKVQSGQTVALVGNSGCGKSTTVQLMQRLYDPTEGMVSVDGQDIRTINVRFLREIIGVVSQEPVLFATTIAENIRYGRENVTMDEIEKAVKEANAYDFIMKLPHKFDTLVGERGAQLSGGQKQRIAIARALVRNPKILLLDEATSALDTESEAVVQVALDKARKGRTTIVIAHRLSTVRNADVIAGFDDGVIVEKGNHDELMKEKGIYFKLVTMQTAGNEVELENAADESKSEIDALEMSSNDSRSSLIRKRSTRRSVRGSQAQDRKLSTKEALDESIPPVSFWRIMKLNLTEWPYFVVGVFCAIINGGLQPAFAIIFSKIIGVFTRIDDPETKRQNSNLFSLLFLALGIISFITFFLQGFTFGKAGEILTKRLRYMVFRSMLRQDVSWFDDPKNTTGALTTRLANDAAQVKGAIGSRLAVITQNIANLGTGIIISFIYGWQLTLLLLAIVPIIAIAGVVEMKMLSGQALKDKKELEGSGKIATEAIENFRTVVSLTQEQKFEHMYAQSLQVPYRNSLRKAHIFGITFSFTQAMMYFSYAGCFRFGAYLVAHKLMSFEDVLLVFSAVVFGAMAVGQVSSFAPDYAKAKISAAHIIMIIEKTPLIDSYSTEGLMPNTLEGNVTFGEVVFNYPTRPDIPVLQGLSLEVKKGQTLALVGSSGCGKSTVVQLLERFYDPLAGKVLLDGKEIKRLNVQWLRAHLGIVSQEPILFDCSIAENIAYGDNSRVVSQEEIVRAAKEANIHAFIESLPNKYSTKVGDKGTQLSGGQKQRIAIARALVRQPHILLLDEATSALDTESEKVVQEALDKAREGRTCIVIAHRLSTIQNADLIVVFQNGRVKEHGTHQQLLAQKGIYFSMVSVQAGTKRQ

Structure (SMILES)	Ratio [1]	Flu intensity [2]	Ratio [3]	Flu intensity [4]	IC50 [5] [µg/mL]	IC50 [6] [µg/mL]	logP [7]	fractional inhibitory concentration index (FICI) [8]
C=C1[C@@H](OC(=O)C(C)CC)[C@@H](OC(C)=O)C(=O)C(C)(C)/C=C/[C@H](C)[C@H](OC(=O)c2ccccc2)[C@@]2(O)C[C@H](C)[C@H](OC(C)=O)[C@@H]2[C@H]1OC(C)=O (stereo not given in full) [TUCKEYANOL A]	39.8	554	98.9	1375.6	25.8 (≈ 36.9 µM)	17.6 (≈ 25.2 µM)	4.5	0.18
C/C1=C\[C@@H]2[C@H](CC[C@@]3(C)O[C@@H]3[C@H]3[C@@H](O)[C@@H](COC(=O)c4ccccc4)C[C@]3(OC(=O)/C=C/c3ccccc3)C1=O)C2(C)C [LATILAGASCENE D]							7.2	
CC(=O)O[C@H]1[C@@H](COC(=O)c2ccccc2)C[C@]2(OC(=O)/C=C/c3ccccc3)C(=O)/C(C)=C/[C@@H]3[C@H](CC[C@@]4(C)O[C@@H]4[C@@H]12)C3(C)C [LATILAGASCENE G]	68.9	478.3	71.6	496.6	32.2 (≈ 51.4 µM)	28 (≈ 44.7 µM)	7.9	0.14
CC(=O)OC[C@H]1C[C@]2(OC(=O)/C=C/c3ccccc3)C(=O)/C(C)=C/[C@@H]3[C@H](CC[C@@]4(C)O[C@@H]4[C@H]2[C@H]1O)C3(C)C [LATILAGASCENE A]							5.5	
CC1(C)[C@@H]2/C=C(\CO)C(=O)[C@@]3(OC(=O)/C=C/c4ccccc4)C[C@H](COC(=O)c4ccccc4)[C@H](O)[C@@H]3[C@H]3O[C@]3(C)CC[C@@H]21 [LATILAGASCENE E]							5.9	
CCCC(=O)OC[C@H]1C[C@]2(OC(=O)/C=C/c3ccccc3)C(=O)/C(C)=C/[C@@H]3[C@H](CC[C@@]4(C)O[C@@H]4[C@H]2[C@H]1OC(=O)CCC)C3(C)C [LATILAGASCENE I]	62.4	433.4	54.2	376.5	23.9 (≈ 38.5 µM)	17.3 (≈ 27.9 µM)	8	0.14
CC(=O)OC[C@H]1C[C@]2(OC(=O)/C=C/c3ccccc3)C(=O)/C(C)=C/[C@@H]3[C@H](CC[C@@]4(C)O[C@@H]4[C@H]2[C@H]1OC(C)=O)C3(C)C [LATILAGASCENE C]							6.2	
CCC(=O)OC[C@H]1C[C@]2(OC(=O)/C=C/c3ccccc3)C(=O)/C(C)=C/[C@@H]3[C@H](CC[C@@]4(C)O[C@@H]4[C@H]2[C@H]1OC(=O)CC)C3(C)C [LATILAGASCENE H]	61.6	427.4	78	541.3	25.3 (≈ 42.7 µM)	17.5 (≈ 29.5 µM)	6.9	0.07
C/C1=C\[C@@H]2[C@H](CC[C@@]3(C)O[C@@H]3[C@H]3[C@@H](O)[C@@H](C)C[C@]3(OC(=O)/C=C/c3ccccc3)C1=O)C2(C)C [JOLKINOL B]							5.8	
C=C1[C@@H](OC(=O)C(C)C)[C@@H](OC(C)=O)C(=O)C(C)(C)/C=C/[C@H](C)[C@H](OC(=O)c2ccccc2)[C@@]2(O)C[C@H](C)[C@H](OC(C)=O)[C@@H]2[C@H]1OC(C)=O [TUCKEYANOL B]	25	347.6	97.3	1353.2	19.4 (≈ 28.3 µM)	12 (≈ 17.5 µM)	4	0.25
C/C1=C\[C@@H]2[C@H](CC[C@@]3(C)O[C@@H]3[C@H]3[C@@H](O)[C@@H](CO)C[C@]3(OC(=O)/C=C/c3ccccc3)C1=O)C2(C)C [LATILAGASCENE B]							4.8	
C=C1[C@@H](OC(=O)c2ccccc2)[C@@H](OC(C)=O)[C@@H](OC(C)=O)C(C)(C)/C=C/[C@H](C)C(=O)[C@@]2(OC(C)=O)C[C@@](C)(OC(=O)c3ccccc3)[C@H](OC(C)=O)[C@@H]2[C@H]1OC(C)=O [EUPHOTUCKEYANOL]	81	1127.4	106.2	1476.7	45 (≈ 55 µM)	22.8 (≈ 27.8 µM)	6.7	0.08
C/C1=C\[C@@H]2[C@H](CC[C@@]3(C)O[C@@H]3[C@H]3[C@@H](O)[C@@H](C)C[C@]3(OC(=O)c3ccccc3)C1=O)C2(C)C [LATILAGASCENE F]							5.3	
